The text below walks through data of paper PMC12133102, “Deciphering the Physical Binding Mechanism of Enzyme–Photosensitizer Facilitates Catalysis-Augmented Photodynamic Therapy” (Research, 2025).

Molecules are shown by their SMILES.

In this assay the target is T1, HSA (human serum albumin) (Homo sapiens, UniProt P02768).
T1 construct: gene ALB; commercial HSA (Shanghai Yuanye); amine-coupled to CM5 chip
Briefly: SPR (Biacore T200, immobilized protein on CM5). The format is binding. On the technique in general: SPR reads the build-up and loss of mass on a sensor chip optically.

The term Kd denotes the free concentration of one partner at which half of the binding sites on the other are occupied at equilibrium, for simple one-to-one binding. A lower Kd goes with a tighter complex.

T1 sequence (P02768 25-609): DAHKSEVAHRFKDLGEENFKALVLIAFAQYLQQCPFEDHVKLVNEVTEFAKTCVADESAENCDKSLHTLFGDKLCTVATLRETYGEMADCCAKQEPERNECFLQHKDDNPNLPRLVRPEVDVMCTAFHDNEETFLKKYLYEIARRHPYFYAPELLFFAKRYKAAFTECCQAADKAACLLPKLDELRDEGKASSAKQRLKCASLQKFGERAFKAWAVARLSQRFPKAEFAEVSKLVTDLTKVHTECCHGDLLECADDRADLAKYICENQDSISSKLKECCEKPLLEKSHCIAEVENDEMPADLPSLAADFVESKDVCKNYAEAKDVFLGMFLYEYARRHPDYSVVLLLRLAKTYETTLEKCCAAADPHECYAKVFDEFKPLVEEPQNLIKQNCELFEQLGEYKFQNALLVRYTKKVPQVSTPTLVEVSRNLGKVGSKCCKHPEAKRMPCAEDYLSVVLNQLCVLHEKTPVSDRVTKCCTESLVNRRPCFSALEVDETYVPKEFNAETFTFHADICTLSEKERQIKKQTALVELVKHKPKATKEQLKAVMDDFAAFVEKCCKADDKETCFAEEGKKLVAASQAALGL

Regarding `C=Cc1c(C)c2cc3nc(c(CC(=O)O)c4[nH]c(cc5nc(cc1[nH]2)C(C)=C5CC)c(C)c4C(=O)O)[C@@H](CCC(=O)O)[C@@H]3C` [Ce6], the Kd turned out to be 2.12 µM.
